The values below come from PMC7026418, “The kinase polypharmacology landscape of clinical PARP inhibitors” (Scientific Reports, 2020).

Like-named read-outs stand apart in the source and are kept apart here.

Targets include CDK5 (Homo sapiens, UniProt Q00535); EGFR(S752-I759del) (Homo sapiens, UniProt P00533, DEL752-759); PIK3CA(E545A) (Homo sapiens, UniProt P42336, E545A).
What all share (assay): biochemical
Common to all, as to design: DiscoveRx KINOMEscan active site-directed competition binding; percent of control kinase bound to immobilised ligand

For a further assay, the target named is T1, EPHB2 (Homo sapiens, UniProt P29323).
T1 sequence (P29323 1-1055): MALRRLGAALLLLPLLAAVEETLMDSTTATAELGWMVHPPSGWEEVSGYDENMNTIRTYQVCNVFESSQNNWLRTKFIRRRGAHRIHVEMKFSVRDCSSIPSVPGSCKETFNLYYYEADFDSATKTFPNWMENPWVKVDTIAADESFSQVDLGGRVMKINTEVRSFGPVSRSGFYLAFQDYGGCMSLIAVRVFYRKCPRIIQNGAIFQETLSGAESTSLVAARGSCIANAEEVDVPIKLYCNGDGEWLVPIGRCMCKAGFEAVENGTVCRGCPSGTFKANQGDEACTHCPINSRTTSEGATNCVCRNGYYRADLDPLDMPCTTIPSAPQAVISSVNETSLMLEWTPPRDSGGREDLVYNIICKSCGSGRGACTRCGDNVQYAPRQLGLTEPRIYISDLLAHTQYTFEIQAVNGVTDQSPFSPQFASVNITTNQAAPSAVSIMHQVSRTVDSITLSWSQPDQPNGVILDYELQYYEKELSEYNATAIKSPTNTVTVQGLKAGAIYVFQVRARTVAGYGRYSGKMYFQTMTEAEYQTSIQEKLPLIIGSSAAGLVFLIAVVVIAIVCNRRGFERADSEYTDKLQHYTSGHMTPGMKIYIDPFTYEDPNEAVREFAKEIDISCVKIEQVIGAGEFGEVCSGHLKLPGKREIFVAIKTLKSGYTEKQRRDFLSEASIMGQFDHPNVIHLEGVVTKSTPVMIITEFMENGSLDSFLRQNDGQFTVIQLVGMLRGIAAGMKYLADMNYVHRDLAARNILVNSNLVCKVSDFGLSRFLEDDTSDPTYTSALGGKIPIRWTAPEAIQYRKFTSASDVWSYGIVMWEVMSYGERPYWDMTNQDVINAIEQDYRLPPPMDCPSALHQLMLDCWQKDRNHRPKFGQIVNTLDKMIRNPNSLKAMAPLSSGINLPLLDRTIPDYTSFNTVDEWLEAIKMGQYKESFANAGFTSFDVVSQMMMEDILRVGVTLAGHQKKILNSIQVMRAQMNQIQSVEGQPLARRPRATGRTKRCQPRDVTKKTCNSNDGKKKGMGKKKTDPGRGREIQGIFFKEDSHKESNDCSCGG

The target in a further assay is T2, TTK (Homo sapiens, UniProt P33981).
T2 sequence (P33981 1-857): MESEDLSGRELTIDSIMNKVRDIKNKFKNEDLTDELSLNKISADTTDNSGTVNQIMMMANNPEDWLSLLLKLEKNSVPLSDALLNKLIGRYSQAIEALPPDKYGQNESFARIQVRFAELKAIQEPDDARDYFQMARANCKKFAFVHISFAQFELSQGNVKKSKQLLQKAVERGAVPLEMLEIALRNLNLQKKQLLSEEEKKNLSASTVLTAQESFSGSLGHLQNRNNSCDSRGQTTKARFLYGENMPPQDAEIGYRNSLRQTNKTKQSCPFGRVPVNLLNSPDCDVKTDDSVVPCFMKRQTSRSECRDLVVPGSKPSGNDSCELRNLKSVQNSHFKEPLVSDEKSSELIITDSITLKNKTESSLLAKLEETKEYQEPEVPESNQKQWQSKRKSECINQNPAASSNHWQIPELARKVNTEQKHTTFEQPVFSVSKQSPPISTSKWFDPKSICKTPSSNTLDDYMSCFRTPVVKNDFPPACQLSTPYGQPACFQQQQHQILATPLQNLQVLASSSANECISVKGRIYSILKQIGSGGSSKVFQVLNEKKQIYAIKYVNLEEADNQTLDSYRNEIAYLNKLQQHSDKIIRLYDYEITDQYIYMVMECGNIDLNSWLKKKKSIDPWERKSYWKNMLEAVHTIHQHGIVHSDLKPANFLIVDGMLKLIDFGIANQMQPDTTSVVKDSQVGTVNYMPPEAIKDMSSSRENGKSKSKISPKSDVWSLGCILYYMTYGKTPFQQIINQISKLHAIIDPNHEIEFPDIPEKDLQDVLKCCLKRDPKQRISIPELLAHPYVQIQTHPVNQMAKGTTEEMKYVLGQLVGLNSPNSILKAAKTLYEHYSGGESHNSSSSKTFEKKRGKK

In a further assay the target is T3, TEC (Homo sapiens, UniProt P42680).
T3 sequence (P42680 1-631): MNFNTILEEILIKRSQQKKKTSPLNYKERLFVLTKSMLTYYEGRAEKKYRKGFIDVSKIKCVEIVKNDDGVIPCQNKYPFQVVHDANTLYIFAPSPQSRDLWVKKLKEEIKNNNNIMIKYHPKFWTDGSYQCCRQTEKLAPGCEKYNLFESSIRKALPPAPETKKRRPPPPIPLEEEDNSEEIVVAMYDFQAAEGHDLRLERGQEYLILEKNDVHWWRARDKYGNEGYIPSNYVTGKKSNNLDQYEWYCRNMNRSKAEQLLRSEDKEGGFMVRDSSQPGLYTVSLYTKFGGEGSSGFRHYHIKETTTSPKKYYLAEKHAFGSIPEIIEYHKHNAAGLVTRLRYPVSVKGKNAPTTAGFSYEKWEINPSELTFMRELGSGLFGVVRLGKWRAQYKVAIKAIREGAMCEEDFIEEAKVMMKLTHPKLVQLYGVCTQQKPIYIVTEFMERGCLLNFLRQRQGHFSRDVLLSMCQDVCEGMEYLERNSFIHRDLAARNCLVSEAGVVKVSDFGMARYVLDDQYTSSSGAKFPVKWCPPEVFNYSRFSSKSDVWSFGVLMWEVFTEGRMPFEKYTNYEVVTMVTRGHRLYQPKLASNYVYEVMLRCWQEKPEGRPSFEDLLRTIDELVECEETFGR

Setting [1] is: read-out: Rucaparib / %Ctrl @ 10000nM, binding competition, % of control.
Where [2] appears, read: read-out: Talazoparib (BMN 673) / %Ctrl @ 10000nM.
Setting [3] is: read-out: Niraparib (MK-4827) / %Ctrl @ 10000nM.
The mark [4] stands for this setting: read-out: Olaparib / %Ctrl @ 10000nM.

Sequence of PIK3CA(E545A) (P42336 whole entry E545A): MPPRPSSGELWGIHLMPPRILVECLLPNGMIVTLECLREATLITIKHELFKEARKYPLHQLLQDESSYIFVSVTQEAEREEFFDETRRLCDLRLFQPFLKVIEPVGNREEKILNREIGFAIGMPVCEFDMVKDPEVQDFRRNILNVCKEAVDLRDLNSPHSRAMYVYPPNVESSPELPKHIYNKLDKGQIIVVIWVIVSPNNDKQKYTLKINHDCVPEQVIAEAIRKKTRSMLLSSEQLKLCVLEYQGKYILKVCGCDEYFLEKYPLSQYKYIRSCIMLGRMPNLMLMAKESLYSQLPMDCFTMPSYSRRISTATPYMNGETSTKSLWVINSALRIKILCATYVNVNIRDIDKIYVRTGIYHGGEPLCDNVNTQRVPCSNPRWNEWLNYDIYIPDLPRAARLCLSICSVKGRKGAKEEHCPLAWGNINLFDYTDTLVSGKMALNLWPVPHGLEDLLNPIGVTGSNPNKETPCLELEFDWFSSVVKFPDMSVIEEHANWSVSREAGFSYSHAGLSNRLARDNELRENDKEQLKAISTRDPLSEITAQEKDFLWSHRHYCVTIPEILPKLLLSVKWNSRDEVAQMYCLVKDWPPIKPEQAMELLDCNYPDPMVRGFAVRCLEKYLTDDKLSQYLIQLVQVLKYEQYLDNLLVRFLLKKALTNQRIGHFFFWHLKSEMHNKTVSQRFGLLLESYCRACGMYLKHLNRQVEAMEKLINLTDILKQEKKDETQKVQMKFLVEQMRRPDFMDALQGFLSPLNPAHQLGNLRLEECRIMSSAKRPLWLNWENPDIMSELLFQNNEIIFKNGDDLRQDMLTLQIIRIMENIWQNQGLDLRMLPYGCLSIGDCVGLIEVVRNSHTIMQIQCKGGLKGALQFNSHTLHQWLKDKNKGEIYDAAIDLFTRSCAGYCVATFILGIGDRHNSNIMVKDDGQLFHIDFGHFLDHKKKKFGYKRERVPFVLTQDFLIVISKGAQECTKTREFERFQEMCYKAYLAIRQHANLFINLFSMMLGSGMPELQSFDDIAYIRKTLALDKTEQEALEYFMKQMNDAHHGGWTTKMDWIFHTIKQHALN
Sequence of CDK5 (Q00535 whole entry): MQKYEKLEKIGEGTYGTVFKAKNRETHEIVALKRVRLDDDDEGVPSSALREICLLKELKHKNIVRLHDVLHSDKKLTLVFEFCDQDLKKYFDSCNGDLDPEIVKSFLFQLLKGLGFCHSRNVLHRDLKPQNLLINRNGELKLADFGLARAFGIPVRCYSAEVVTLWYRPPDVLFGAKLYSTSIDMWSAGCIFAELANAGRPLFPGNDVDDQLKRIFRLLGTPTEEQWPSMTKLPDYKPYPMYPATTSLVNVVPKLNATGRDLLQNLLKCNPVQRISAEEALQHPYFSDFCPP
Sequence of EGFR(S752-I759del) (P00533 with tags, fused parts or gaps DEL752-759): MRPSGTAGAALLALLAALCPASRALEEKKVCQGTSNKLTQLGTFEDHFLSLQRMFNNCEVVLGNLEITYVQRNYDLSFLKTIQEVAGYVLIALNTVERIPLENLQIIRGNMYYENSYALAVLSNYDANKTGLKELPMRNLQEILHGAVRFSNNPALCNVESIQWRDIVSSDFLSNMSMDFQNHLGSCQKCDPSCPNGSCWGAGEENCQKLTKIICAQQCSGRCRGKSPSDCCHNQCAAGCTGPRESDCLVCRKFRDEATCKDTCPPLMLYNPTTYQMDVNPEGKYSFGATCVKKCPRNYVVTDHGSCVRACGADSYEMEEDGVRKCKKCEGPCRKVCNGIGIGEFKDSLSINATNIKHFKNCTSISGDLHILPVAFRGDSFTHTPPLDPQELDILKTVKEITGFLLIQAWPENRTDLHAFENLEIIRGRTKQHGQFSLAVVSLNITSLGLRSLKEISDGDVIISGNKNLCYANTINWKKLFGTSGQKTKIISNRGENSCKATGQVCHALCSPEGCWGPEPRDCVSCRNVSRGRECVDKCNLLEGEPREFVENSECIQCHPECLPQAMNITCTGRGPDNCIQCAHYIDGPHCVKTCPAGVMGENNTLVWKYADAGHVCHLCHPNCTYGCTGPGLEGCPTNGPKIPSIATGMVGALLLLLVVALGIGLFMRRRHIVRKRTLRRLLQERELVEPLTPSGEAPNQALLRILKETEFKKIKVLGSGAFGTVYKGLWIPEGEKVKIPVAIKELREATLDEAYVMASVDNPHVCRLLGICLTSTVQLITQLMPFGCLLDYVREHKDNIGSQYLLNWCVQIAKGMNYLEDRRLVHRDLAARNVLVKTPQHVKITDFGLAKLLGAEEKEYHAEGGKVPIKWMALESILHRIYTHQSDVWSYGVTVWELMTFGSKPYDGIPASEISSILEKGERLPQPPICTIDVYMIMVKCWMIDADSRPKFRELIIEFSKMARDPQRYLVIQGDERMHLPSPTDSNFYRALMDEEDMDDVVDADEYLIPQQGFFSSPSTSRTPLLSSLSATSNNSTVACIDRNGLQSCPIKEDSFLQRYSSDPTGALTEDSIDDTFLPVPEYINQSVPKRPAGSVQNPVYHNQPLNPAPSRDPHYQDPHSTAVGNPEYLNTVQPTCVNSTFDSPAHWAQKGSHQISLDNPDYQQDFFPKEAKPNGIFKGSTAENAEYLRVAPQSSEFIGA

As for `CNCc1ccc(-c2[nH]c3cc(F)cc4c3c2CCNC4=O)cc1` [Rucaparib], the percent of control binding at 10 µM amounted to 88% on CDK5 (setting [1]); 89% on EGFR(S752-I759del) (setting [1]); 91% on EPHB2 (setting [1]); 20% on TTK (setting [1]); 85% at PIK3CA(E545A) (setting [1]); 100% at TEC (setting [1]).

For the compound `Cn1ncnc1[C@H]1c2n[nH]c(=O)c3cc(F)cc(c23)N[C@@H]1c1ccc(F)cc1` [Talazoparib], the percent of control binding at 10 µM was 98% on CDK5 (setting [2]); 100% on EGFR(S752-I759del) (setting [2]); 89% at EPHB2 (setting [2]); 99% at TTK (setting [2]); 73% on PIK3CA(E545A) (setting [2]); 92% on TEC (setting [2]).

`NC(=O)c1cccc2cn(-c3ccc([C@@H]4CCCNC4)cc3)nc12` [Niraparib]: the percent of control binding at 10 µM is 90% at CDK5 (setting [3]); 71% at EGFR(S752-I759del) (setting [3]); 75% at EPHB2 (setting [3]); 54% on TTK (setting [3]); 98% on PIK3CA(E545A) (setting [3]); 76% on TEC (setting [3]).

As for `O=C(c1cc(Cc2n[nH]c(=O)c3ccccc23)ccc1F)N1CCN(C(=O)C2CC2)CC1` [Olaparib], the percent of control binding at 10 µM on CDK5 (setting [4]) worked out at 95%; at EGFR(S752-I759del) (setting [4]), 84%; on EPHB2 (setting [4]), 95%; at TTK (setting [4]) it was 90%; at PIK3CA(E545A) (setting [4]) it was 90%; at TEC (setting [4]), 100%.
